Source: the supplement of paper PMC10307832

How the values were obtained:
Assay in all cases: relative viability (nuclei count vs DMSO), 5 days (fraction); higher = more cells survive
[1] = compound: NS(=O)(=O)OC[C@@H]1C[C@@H](n2ccc3c(N[C@H]4CCc5ccccc54)ncnc32)C[C@@H]1O [MLN4924] + C[C@]1(O)C[C@@H](c2nc(-c3ccc4ccc(-c5ccccc5)nc4c3)c3c(N)nccn32)C1 [Linsitinib] (partner 1 µM)
Method in brief: (§1)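 Cells from lung cancer lines were seeded into 1536-well plates and, one day later, dosed by pin tool. Treatments were either a single drug or a fixed dose of an anchor drug with five library-drug doses (not always all listed) in √10 steps. After 5 days, nuclei were stained in a one-step fixation (final 0.05% Triton X-100, 1% formaldehyde, 1 ug/ml Hoechst) and counted on 4× images, and relative viability is the treated-to-vehicle nuclei ratio, as the median of duplicate plates.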

[2] = compound: NS(=O)(=O)OC[C@@H]1C[C@@H](n2ccc3c(N[C@H]4CCc5ccccc54)ncnc32)C[C@@H]1O [MLN4924] + CC1(C)CCC(c2ccc(Cl)cc2)=C(CN2CCN(c3ccc(C(=O)NS(=O)(=O)c4ccc(N[C@H](CCN5CCOCC5)CSc5ccccc5)c(S(=O)(=O)C(F)(F)F)c4)cc3)CC2)C1 [Navitoclax] (partner 0.5 µM)
Method in brief: as §1

[3] = compound: C1CC(C1)(C(=O)O)C(=O)O.[NH2-].[NH2-].[Pt+2] [Carboplatin] + CC(=O)c1c(C)c2cnc(Nc3ccc(N4CCNCC4)cn3)nc2n(C2CCCC2)c1=O [Palbociclib] (partner 0.5 µM)
Method in brief: as §1

[4] = compound: C1CC(C1)(C(=O)O)C(=O)O.[NH2-].[NH2-].[Pt+2] [Carboplatin] + CS(=O)(=O)N1CCN(Cc2cc3nc(-c4cccc5[nH]ncc45)nc(N4CCOCC4)c3s2)CC1 [Pictilisib] (partner 1 µM)
Method in brief: as §1

Row | Cell Line | relative viability ([1]; first compound 0.04 µM) | relative viability ([1]; first compound 0.1265 µM) | relative viability ([1]; first compound 0.4 µM) | relative viability ([1]; first compound 1.265 µM) | relative viability ([1]; first compound 4 µM) | relative viability ([2]; first compound 0.04 µM) | relative viability ([2]; first compound 0.1265 µM) | relative viability ([2]; first compound 0.4 µM) | relative viability ([2]; first compound 1.265 µM) | relative viability ([2]; first compound 4 µM) | relative viability ([3]; first compound 0.08 µM) | relative viability ([3]; first compound 0.253 µM) | relative viability ([3]; first compound 0.8 µM) | relative viability ([3]; first compound 2.53 µM) | relative viability ([3]; first compound 8 µM) | relative viability ([4]; first compound 0.08 µM) | relative viability ([4]; first compound 0.253 µM) | relative viability ([4]; first compound 0.8 µM) | relative viability ([4]; first compound 2.53 µM) | relative viability ([4]; first compound 8 µM)
1 | NCI-H1437 | 0.959 | 0.828 | 0.466 | 0.221 | 0.103 | 1.03 | 0.906 | 0.571 | 0.347 | 0.143 | 0.302 | 0.316 | 0.273 | 0.272 | 0.31 | 0.433 | 0.401 | 0.414 | 0.381 | 0.413
2 | EMC-BAC-2 | 0.805 | 0.547 | 0.237 | 0.179 | 0.163 | 1.02 | 0.486 | 0.271 | 0.16 | 0.159 | 0.533 | 0.516 | 0.525 | 0.536 | 0.469 | 0.48 | 0.538 | 0.476 | 0.56 | 0.466
3 | NCI-H520 | 0.587 | 0.413 | 0.312 | 0.239 | 0.185 | 0.629 | 0.583 | 0.298 | 0.227 | 0.223 | 0.26 | 0.2 | 0.201 | 0.223 | 0.228 | 0.357 | 0.227 | 0.27 | 0.297 | 0.258
4 | NCI-H1993 | 0.937 | 0.719 | 0.68 | 0.632 | 0.584 | 0.962 | 0.618 | 0.584 | 0.505 | 0.584 | 0.596 | 0.781 | 0.634 | 0.627 | 0.534 | 0.805 | 0.891 | 0.745 | 0.869 | 0.811
5 | HCC-827 | 0.801 | 0.527 | 0.468 | 0.228 | 0.211 | 0.925 | 0.747 | 0.492 | 0.275 | 0.237 | 0.479 | 0.38 | 0.499 | 0.44 | 0.469 | 0.886 | 0.923 | 0.79 | 0.846 | 0.897
6 | NCI-H2087 | 0.775 | 0.776 | 0.311 | 0.172 | 0.187 | 0.923 | 0.682 | 0.379 | 0.177 | 0.132 | 0.259 | 0.23 | 0.208 | 0.212 | 0.194 | 0.968 | 0.868 | 0.859 | 0.826 | 0.504
7 | HARA | 0.568 | 0.455 | 0.481 | 0.092 | 0.0886 | 0.847 | 0.601 | 0.379 | 0.105 | 0.115 | 0.311 | 0.344 | 0.204 | 0.225 | 0.308 | 0.424 | 0.341 | 0.387 | 0.382 | 0.391
8 | NCI-H2126 | 0.747 | 0.69 | 0.576 | 0.327 | 0.391 | 0.764 | 0.742 | 0.621 | 0.386 | 0.446 | 0.333 | 0.354 | 0.336 | 0.363 | 0.353 | 0.47 | 0.516 | 0.518 | 0.511 | 0.452
9 | LCLC-103H | 1.33 | 1.21 | 1.2 | 0.316 | 0.355 | – | – | – | – | – | 0.538 | 0.469 | 0.543 | 0.431 | 0.444 | 0.65 | 0.597 | 0.613 | 0.646 | 0.611
10 | SK-LU-1 | 0.747 | 0.443 | 0.19 | 0.181 | 0.216 | 0.737 | 0.618 | 0.175 | 0.127 | 0.167 | 0.424 | 0.386 | 0.363 | 0.415 | 0.355 | 0.542 | 0.664 | 0.528 | 0.542 | 0.411
11 | EKVX | 0.949 | 0.653 | 0.471 | 0.169 | 0.127 | 0.861 | 0.816 | 0.352 | 0.173 | 0.148 | 0.364 | 0.513 | 0.385 | 0.354 | 0.341 | 0.452 | 0.422 | 0.413 | 0.381 | 0.387
12 | HCC-366 | 0.838 | 0.933 | 0.513 | 0.0247 | 0.0197 | 1.06 | 1.09 | 0.353 | 0.241 | 0.0154 | 0.484 | 0.401 | 0.339 | 0.233 | 0.152 | 0.138 | 0.128 | 0.0961 | 0.158 | 0.106
13 | NCI-H1650 | – | – | – | – | – | 1.02 | 0.739 | 0.438 | 0.156 | 0.176 | 0.321 | 0.341 | 0.359 | 0.349 | 0.251 | 0.741 | 0.651 | 0.563 | 0.519 | 0.416
14 | COR-L23 | 0.788 | 0.801 | 0.619 | 0.149 | 0.11 | 0.948 | 0.885 | 0.568 | 0.275 | 0.113 | 0.32 | 0.303 | 0.226 | 0.196 | 0.123 | 0.933 | 0.782 | 0.735 | 0.512 | 0.253
15 | NCI-H647 | 0.709 | 0.499 | 0.137 | 0.0815 | 0.0619 | 0.976 | 0.424 | 0.159 | 0.0575 | 0.0744 | 0.433 | 0.542 | 0.388 | 0.229 | 0.37 | 0.572 | 0.477 | 0.368 | 0.482 | 0.429
16 | LXF-289 | 0.785 | 0.645 | 0.417 | 0.224 | 0.143 | 0.848 | 0.664 | 0.524 | 0.174 | 0.113 | 0.629 | 0.59 | 0.635 | 0.563 | 0.583 | 0.889 | 0.883 | 0.8 | 0.832 | 0.766
